Results reported in patent US11598778B2, “Method for diagnosis, prognosis and determination of treatment for cutaneous t-cell lymphoma” (UNIVERSITY OF PITTSBURGH—OF THE COMMONWEALTH SYSTEM OF …, priority 2013, dated 2023).

Assays:
Type in all cases: cell-based, human
[1] = tested on: TOX; assay: qRT-PCR of TOX gene expression in cultured PBMCs after drug treatment; settings: isolated PBMCs, 48 hours of incubation with treatment; 4 μM romidepsin or 20 uM pralatrexate; romidepsin p<0.05; FIG. 5A
Protocol: (§1) Isolated PBMCs were cultured overnight and the next day divided into two treatment groups: 4 μM romidepsin and 20 uM pralatrexate. Each treatment was added 24 hours following culture initiation and was replaced along with fresh media 24 hours after initial treatment. After 48 hours of incubation with treatment, RNA was isolated from treated cells using RNAprotect and RNeasy (Qiagen, Valencia, Calif.) per manufacturer's instructions. For cDNA synthesis, total RNA (100 ng) was used for Reverse Transcription (RT) with Superscript II reverse transcriptase (Life Technologies, Gaithersburg, Md.) using oligo dT primers according to the recommendations of the manufacturer. 2 ul of the resulting cDNA was used for each PCR reaction. Quantitative reverse transcription PCR was performed using TaqMan PCR master mix (Applied Biosystems, Foster City, Calif.) together with TaqMan probes and primers (Applied Biosystems) using standard conditions. Expression of TOX, PLS3 and […] genes were measured in this way.

[2] = tested on: PLS3; assay: qRT-PCR of PLS3 gene expression in cultured PBMCs after drug treatment; settings: isolated PBMCs, 48 hours of incubation with treatment; 4 μM romidepsin or 20 uM pralatrexate; romidepsin p<0.05; FIG. 5B
Protocol: as §1

[3] = tested on: RUNX3; assay: qRT-PCR of RUNX3 gene expression in cultured PBMCs after drug treatment; settings: isolated PBMCs, 48 hours of incubation with treatment; 4 μM romidepsin or 20 uM pralatrexate; romidepsin p<0.05; FIG. 5C
Protocol: as §1

Structure (SMILES): C#CCC(Cc1cnc2nc(N)nc(N)c2n1)c1ccc(C(=O)N[C@@H](CCC(=O)O)C(=O)O)cc1 (stereo partly drawn) [pralatrexate]
- gene expression of TOX [1]: did not result in altered gene expression
- gene expression of PLS3 [2]: did not result in altered gene expression
- expression of RUNX3 [3]: did not result in altered gene expression
